Assay results: ChEMBL document CHEMBL1128127, “The design of potent and stable benzisothiazolone inhibitors of human leukocyte elastase” (Bioorg Med Chem Lett, 1995)

Tests used:
[1] = biological target: T1, Neutrophil elastase (Homo sapiens) (UniProt P08246)
T1 sequence (whole entry): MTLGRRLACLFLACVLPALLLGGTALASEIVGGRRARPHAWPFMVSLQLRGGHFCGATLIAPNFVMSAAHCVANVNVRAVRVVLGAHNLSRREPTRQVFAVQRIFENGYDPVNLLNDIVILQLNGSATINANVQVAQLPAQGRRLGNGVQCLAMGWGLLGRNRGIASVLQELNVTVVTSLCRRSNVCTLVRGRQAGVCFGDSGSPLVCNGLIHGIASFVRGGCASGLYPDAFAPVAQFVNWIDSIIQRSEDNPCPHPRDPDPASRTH
Description: (§1) Evaluated for inhibitory activity against Human leukocyte elastase (HLE)

[2] = biological target: T1, Neutrophil elastase (Homo sapiens); remark: listed apart in the source
Description: as §1

in vitro = conditions: human, blood
Description: Half-life (human blood stability)

Neutrophil elastase = biological target: T2, Neutrophil elastase (Homo sapiens, UniProt P08246)
T2 sequence (P08246 whole entry): T1 sequence (whole entry)
Description: Ratio of Koff to that of Kon was determined on human leukocyte elastase(HLE)

[3] = Half-life was determined; 88% of parent remained after incubation for 120 min (human blood stability); format: ADME, tissue-based

Row | SMILES | k on [1] | k off [2] | half-life (in vitro) | Ki (Neutrophil elastase) | half-life [3]
1 | CCc1cccc2c1C(=O)N(CSc1nnnn1-c1ccccc1)S2(=O)=O |  |  | 54 min |  | 
2 | CCC(C)c1cccc2c1C(=O)N(CSc1nnnn1-c1ccccc1)S2(=O)=O (stereo unspecified) |  |  | 58 min |  | 
3 | CCCc1cccc2c1C(=O)N(CSc1nnnn1-c1ccccc1)S2(=O)=O |  |  | 55 min |  | 
4 | O=C1c2ccccc2S(=O)(=O)N1CSc1nnnn1-c1ccccc1 |  |  | < 5 min |  | 
5 | COc1cc2c(c(C(C)C)c1OC)C(=O)N(CSc1nnnn1-c1ccccc1)S2(=O)=O | 11800 M⁻¹ s⁻¹ | 6.1e-05 s⁻¹ | 65 min | 5.2 nM | 
6 | CCC(CC)c1cccc2c1C(=O)N(CSc1nnnn1-c1ccccc1)S2(=O)=O |  |  | 100 min |  | 
7 | CCCc1c(OC)c(OC)cc2c1C(=O)N(CSc1nnnn1-c1ccccc1)S2(=O)=O | 240000 M⁻¹ s⁻¹ | 4.7e-05 s⁻¹ | 37 min | 0.2 nM | 
8 | CC(C)(C)c1cccc2c1C(=O)N(CSc1nnnn1-c1ccccc1)S2(=O)=O |  |  |  | > 2000 nM | > 120 min

Continued, values first:

Row | k on [1] | k off [2] | half-life (in vitro) | Ki (Neutrophil elastase) | half-life [3] | SMILES
9 | 21500 M⁻¹ s⁻¹ | 2.4e-05 s⁻¹ | 110 min | 1.1 nM |  | CC(C)c1cc(N2CCN(C)CC2)cc2c1C(=O)N(COC(=O)c1c(Cl)cccc1Cl)S2(=O)=O
10 | 900000 M⁻¹ s⁻¹ | 2.7e-05 s⁻¹ | 30 min |  |  | CC(C)c1cccc2c1C(=O)N(COC(=O)c1c(Cl)cccc1Cl)S2(=O)=O
11 | 1e+06 M⁻¹ s⁻¹ | 3e-05 s⁻¹ | < 15 min | 0.03 nM |  | CC(C)c1cc(F)cc2c1C(=O)N(COC(=O)c1c(Cl)cccc1Cl)S2(=O)=O
12 |  |  | 140 min |  |  | COc1cc(C(C)C)c2c(c1)S(=O)(=O)N(COC(=O)c1c(Cl)cccc1Cl)C2=O
13 |  |  | 45 min |  |  | CC(C)c1cccc2c1C(=O)N(CSc1nnnn1-c1ccccc1)S2(=O)=O
14 | 12300 M⁻¹ s⁻¹ | 2.7e-05 s⁻¹ |  | 2.2 nM |  | CC(C)c1cc(N(C)C)cc2c1C(=O)N(COC(=O)c1c(Cl)cccc1Cl)S2(=O)=O
